# Earlier results in US9682147B2, “Self-preserved oil dispersions comprising boric acid” (SANTEN SAS, priority 2012, dated 2017).
# Like-named read-outs stand apart in the source and are kept apart here.
# Experiments:
# [1] = tested on: corneal cells; settings: boric acid used in cleaning contact lenses solutions
# [2] = tested on: corneal and epithelial cells
# [3] = solution comprising 1.2% w/w of borate
Compound,Corneal cytotoxicity [1],Toxicity to corneal and epithelial cells ([2]; 0.5% to 1% boric acid),Toxicity to corneal and epithelial cells ([2]; concentration of 0.1% boric acid),Antimicrobial activity [3],Criteria for antimicrobial effectiveness given by USP [3]
OB(O)O [boric acid],strong corneal cytotoxicity,toxic,safe,,
borate,,,,some antimicrobial activity,not sufficient to meet the criteria
